Like-named read-outs stand apart in the source and are kept apart here.
Tested on: SNU-C4 HiBiT-PXR KI cells
Experiment: Cytotoxicity, CellTiter-Glo Luminescent Cell Viability Assay
Format: cell-based
Protocol: An Echo 655T Acoustic Liquid Handler was used to dispense 75 nL/well of DMSO or PROTAC dilution into white tissue culture-treated 384-well plates. For 24 h cytotoxicity, 25 μL assay media containing 1×10^4 cells was added to each well to match the conditions for the degradation assays. For 72 h cytotoxicity, 25 μL RPMI with 10% FBS containing 2.5×10^3 cells was added to each well to match normal growth conditions. […] After 24 h or 72 h, the CellTiter-Glo Luminescent Cell Viability Assay (Promega, cat. #G7572) and an EnVision microplate reader were used to assess cytotoxicity. DMSO wells with cells served as positive controls, and wells without cells served as negative controls. The percent cell viability for each well was calculated using equation 5,

[1] = read-out: 24 h CC50, Table 4, 24 h treatment
[2] = read-out: 72 h CC50, Table 4, 72 h treatment
[3] = read-out: 24 h CC50, Table 2, 24 h treatment
[4] = read-out: 72 h CC50, Table 2, 72 h treatment
[5] = read-out: 24 h CC50, Table 3, 24 h treatment
[6] = read-out: 72 h CC50, Table 3, 72 h treatment

CCC[C@H](CC)Oc1ccc(C(C)(C)C)cc1NC(=O)c1nnn(-c2cc(C)c(OCCCCCCOCCOCC(=O)N[C@H](C(=O)N3C[C@H](O)C[C@H]3C(=O)NCc3ccc(-c4scnc4C)cc3)C(C)(C)C)cc2OC)c1C [Compound 36]
CC50 [1]: > 30 µM | CC50 [2]: > 30 µM

CCC[C@H](CC)Oc1ccc(C(=O)NCCOCCOCC(=O)N[C@H](C(=O)N2C[C@H](O)C[C@H]2C(=O)NCc2ccc(-c3scnc3C)cc2)C(C)(C)C)cc1NC(=O)c1nnn(-c2cc(OC)ccc2OC)c1C [Compound 18]
CC50 [3]: > 30 µM | CC50 [4]: > 30 µM

COc1cc(OCCCCCCOCCOCC(=O)N[C@H](C(=O)N2C[C@H](O)C[C@H]2C(=O)NCc2ccc(-c3scnc3C)cc2)C(C)(C)C)c(C)cc1-n1nnc(S(=O)(=O)c2ccc(C(C)(C)C)cc2)c1C [Compound 28, (2S,4R)-1-((S)-2-(2-(2-((6-(4-(4-((4-(TERT-BUTYL)PHENYL)SULFONYL)-5-METHYL-1H-1,2,3-TRIAZOL-1-YL)-5-METHOXY-2-METHYLPHENOXY)HEXYL)OXY)ETHOXY)ACETAMIDO)-3,3-DIMETHYLBUTANOYL)-4-HYDROXY-N-(4-(4-METHYLTHIAZOL-5-YL)BENZYL)PYRROLIDINE-2-CARBOXAMIDE]
CC50 [5]: > 30 µM | CC50 [6]: > 30 µM

COc1cc(OCCOCCOCCOCCOCCC(=O)N[C@H](C(=O)N2C[C@H](O)C[C@H]2C(=O)NCc2ccc(-c3scnc3C)cc2)C(C)(C)C)c(C)cc1-n1nnc(S(=O)(=O)c2ccc(C(C)(C)C)cc2)c1C [Compound 29, (2S,4R)-1-((S)-17-(TERT-BUTYL)-1-(4-(4-((4-(TERT-BUTYL)PHENYL)SULFONYL)-5-METHYL-1H-1,2,3-TRIAZOL-1-YL)-5-METHOXY-2-METHYLPHENOXY)-15-OXO-3,6,9,12-TETRAOXA-16-AZAOCTADECAN-18-OYL)-4-HYDROXY-N-(4-(4-METHYLTHIAZOL-5-YL)BENZYL)PYRROLIDINE-2-CARBOXAMIDE]
CC50 [5]: > 30 µM | CC50 [6]: > 30 µM

COc1cc(OCCOCCOCCC(=O)N[C@H](C(=O)N2C[C@H](O)C[C@H]2C(=O)NCc2ccc(-c3scnc3C)cc2)C(C)(C)C)c(C)cc1-n1nnc(S(=O)(=O)c2ccc(C(C)(C)C)cc2)c1C [Compound 26, (2S,4R)-1-((S)-2-(3-(2-(2-(4-(4-((4-(TERT-BUTYL)PHENYL)SULFONYL)-5-METHYL-1H-1,2,3-TRIAZOL-1-YL)-5-METHOXY-2-METHYLPHENOXY)ETHOXY)ETHOXY)PROPANAMIDO)-3,3-DIMETHYLBUTANOYL)-4-HYDROXY-N-(4-(4-METHYLTHIAZOL-5-YL)BENZYL)PYRROLIDINE-2-CARBOXAMIDE]
CC50 [5]: > 30 µM | CC50 [6]: > 30 µM

COc1ccc(OC)c(-n2nnc(C(=O)Nc3cc(OCCCCCCOCCOCC(=O)N[C@H](C(=O)N4C[C@H](O)C[C@H]4C(=O)NCc4ccc(-c5scnc5C)cc4)C(C)(C)C)cc(C(C)(C)C)c3)c2C)c1 [Compound 15, N-(3-(TERT-BUTYL)-5-((6-(2-(2-(((S)-1-((2S,4R)-4-HYDROXY-2-((4-(4-METHYLTHIAZOL-5 YL)BENZYL)CARBAMOYL)PYRROLIDIN-1-YL)-3,3-DIMETHYL-1-OXOBUTAN-2-YL)AMINO)-2-OXOETHOXY)ETHOXY)HEXYL)OXY)PHENYL)-1-(2,5-DIMETHOXYPHENYL)-5-METHYL-1H-1,2,3-TRIAZOLE-4-CARBOXAMIDE]
CC50 [3]: > 30 µM | CC50 [4]: > 30 µM

CCC[C@H](CC)Oc1ccc(C(C)(C)C)cc1NC(=O)c1nnn(-c2cc(OC)c(OCCCCCCOCCOCC(=O)N[C@H](C(=O)N3C[C@H](O)C[C@H]3C(=O)NCc3ccc(-c4scnc4C)cc3)C(C)(C)C)cc2OC)c1C [Compound 37, N-(5-(TERT-BUTYL)-2-(((S)-HEXAN-3-YL)OXY)PHENYL)-1-(4-((6-(2-(2-(((S)-1-((2S,4R)-4-HYDROXY-2-((4-(4 METHYLTHIAZOL-5-YL)BENZYL)CARBAMOYL)PYRROLIDIN-1-YL)-3,3-DIMETHYL-1-OXOBUTAN-2-YL)AMINO)-2 OXOETHOXY)ETHOXY)HEXYL)OXY)-2,5-DIMETHOXYPHENYL)-5-METHYL-1H-1,2,3-TRIAZOLE-4-CARBOXAMIDE]
CC50 [1]: > 30 µM | CC50 [2]: > 30 µM

COc1cc(OCCOCCOCCOCCC(=O)N[C@H](C(=O)N2C[C@H](O)C[C@H]2C(=O)NCc2ccc(-c3scnc3C)cc2)C(C)(C)C)c(C)cc1-n1nnc(S(=O)(=O)c2ccc(C(C)(C)C)cc2)c1C [Compound 27, (2S,4R)-1-((S)-14-(TERT-BUTYL)-1-(4-(4-((4-(TERT-BUTYL)PHENYL)SULFONYL)-5-METHYL-1H-1,2,3-TRIAZOL-1-YL)-5-METHOXY-2-METHYLPHENOXY)-12-OXO-3,6,9-TRIOXA-13-AZAPENTADECAN-15-OYL)-4-HYDROXY-N-(4-(4-METHYLTHIAZOL-5-YL)BENZYL)PYRROLIDINE-2-CARBOXAMIDE]
CC50 [5]: > 30 µM | CC50 [6]: > 30 µM

CCC[C@H](CC)Oc1ccc(C(=O)NCCOCCOCCOCCOCC(=O)N[C@H](C(=O)N2C[C@H](O)C[C@H]2C(=O)NCc2ccc(-c3scnc3C)cc2)C(C)(C)C)cc1NC(=O)c1nnn(-c2cc(OC)ccc2OC)c1C [Compound 21]
CC50 [3]: > 30 µM | CC50 [4]: > 30 µM

COc1cc(OCCCCCCOCCOCCOCCCCCC(=O)N[C@H](C(=O)N2C[C@H](O)C[C@H]2C(=O)NCc2ccc(-c3scnc3C)cc2)C(C)(C)C)c(C)cc1-n1nnc(S(=O)(=O)c2ccc(C(C)(C)C)cc2)c1C [Compound 33, (2S,4R)-1-((S)-2-(tert-Butyl)-22-(4-(4-((4-(tert-butyl)phenyl)sulfonyl)-5-methyl-1H-1,2,3-triazol-1-yl)-5-methoxy-2-methylphenoxy)-4-oxo-10,13,16-trioxa-3-azadocosanoyl)-4-hydroxy-N-(4-(4-methylthiazol-5-yl)benzyl)pyrrolidine-2-carboxamide]
CC50 [5]: > 30 µM | CC50 [6]: > 30 µM

COc1cc(OCCOCCOCCOCCOCCOCCC(=O)N[C@H](C(=O)N2C[C@H](O)C[C@H]2C(=O)NCc2ccc(-c3scnc3C)cc2)C(C)(C)C)c(C)cc1-n1nnc(S(=O)(=O)c2ccc(C(C)(C)C)cc2)c1C [Compound 31, (2S,4R)-1-((S)-20-(TERT-BUTYL)-1-(4-(4-((4-(TERT-BUTYL)PHENYL)SULFONYL)-5-METHYL-1H-1,2,3-TRIAZOL-1-YL)-5-METHOXY-2-METHYLPHENOXY)-18-OXO-3,6,9,12,15-PENTAOXA-19-AZAHENICOSAN-21-OYL)-4-HYDROXY-N-(4-(4-METHYLTHIAZOL-5-YL)BENZYL)PYRROLIDINE-2-CARBOXAMIDE]
CC50 [5]: > 30 µM | CC50 [6]: > 30 µM

COc1cc(OCCCCCCOCCCCCOCCCCCC(=O)N[C@H](C(=O)N2C[C@H](O)C[C@H]2C(=O)NCc2ccc(-c3scnc3C)cc2)C(C)(C)C)c(C)cc1-n1nnc(S(=O)(=O)c2ccc(C(C)(C)C)cc2)c1C [Compound 32, (2S,4R)-1-((S)-2-(6-((5-((6-(4-(4-((4-(tert-Butyl)phenyl)sulfonyl)-5-methyl-1H-1,2,3-triazol-1-yl)-5-methoxy-2-methylphenoxy)hexyl)oxy)pentyl)oxy)hexanamido)-3,3-dimethylbutanoyl)-4-hydroxy-N-(4-(4-methylthiazol-5-yl)benzyl)pyrrolidine-2-carboxamide]
CC50 [5]: > 30 µM | CC50 [6]: > 30 µM

CCC[C@H](CC)Oc1ccc(C(=O)N[C@H](C(=O)N2C[C@H](O)C[C@H]2C(=O)NCc2ccc(-c3scnc3C)cc2)C(C)(C)C)cc1NC(=O)c1nnn(-c2cc(OC)ccc2OC)c1C [Compound 16]
CC50 [3]: > 30 µM | CC50 [4]: > 30 µM

Reference: US12516051B1, “Small molecule degraders and fluorescent probes of PXR” (St. Jude Children's Research Hospital, Inc., priority 2024, dated 2026)
